Values quoted from earlier work in US20250170148A1, “NEUROACTIVE STEROIDS FOR TREATMENT OF GASTROINTESTINAL DISEASES OR CONDITIONS” (Sage Therapeutics, Inc., priority 2022, published 2025).
“Also recorded” adds a separate entry of the source. Like-named read-outs stand apart in the source and are kept apart here.

Tests used:
[1] = system: patients with major depressive disorder; conditions: meta-analysis; for rate of gastrointestinal adverse reactions compared to placebo: 15 most commonly used antidepressants in MDD; for gastrointestinal tolerability among antidepressants: patients with MDD

| Structure (SMILES) | rate of gastrointestinal adverse reactions compared to placebo [1] | other results |
| --- | --- | --- |
| Fc1ccc([C@@H]2CCNC[C@H]2COc2ccc3c(c2)OCO3)cc1 [paroxetine] | higher rates of gastrointestinal adverse reactions compared to placebo | – |
| CCN(CC)C(=O)[C@@]1(c2ccccc2)C[C@H]1CN [levomilnacipran] | higher rates of gastrointestinal adverse reactions compared to placebo | – |
| Cc1ccc(Sc2ccccc2N2CCNCC2)c(C)c1 [vortioxetine] | higher rates of gastrointestinal adverse reactions compared to placebo | – |
| CN(C)CC(c1ccc(O)cc1)C1(O)CCCCC1 (centres unmarked) [desvenlafaxine] | higher rates of gastrointestinal adverse reactions compared to placebo | – |
| CNCCC(Oc1ccc(C(F)(F)F)cc1)c1ccccc1 (centres unmarked) [fluoxetine] | higher rates of gastrointestinal adverse reactions compared to placebo | – |
| CN(C)CCCC1(c2ccc(F)cc2)OCc2cc(C#N)ccc21 (centres unmarked) [citalopram] | higher rates of gastrointestinal adverse reactions compared to placebo | – |
| CN[C@H]1CC[C@@H](c2ccc(Cl)c(Cl)c2)c2ccccc21 [sertraline] | higher rates of gastrointestinal adverse reactions compared to placebo | incidence of diarrhea (compared to other SSRIs and venlafaxine): higher incidence of diarrhea; gastrointestinal tolerability among antidepressants [1]: least tolerated antidepressants on the gastrointestinal tract; also recorded: least tolerated antidepressants on the GI tract |
| CC(NC(C)(C)C)C(=O)c1cccc(Cl)c1 (centres unmarked) [bupropion] | higher rates of gastrointestinal adverse reactions compared to placebo | – |
| COc1ccc2cccc(CCNC(C)=O)c2c1 [agomelatine] | higher rates of gastrointestinal adverse reactions compared to placebo | – |
| CN1CCN2c3ncccc3Cc3ccccc3C2C1 (centres unmarked) [mirtazapine] | higher rates of gastrointestinal adverse reactions compared to placebo | – |
| CCOc1ccccc1OC(c1ccccc1)C1CNCCO1 (centres unmarked) [reboxetine] | higher rates of gastrointestinal adverse reactions compared to placebo | – |
| COc1ccc(C(CN(C)C)C2(O)CCCCC2)cc1 (centres unmarked) [venlafaxine] | higher rates of gastrointestinal adverse reactions compared to placebo | rates of nausea and vomiting (compared to SSRIs and duloxetine): higher rates of nausea and vomiting |
| COCCCC/C(=N\OCCN)c1ccc(C(F)(F)F)cc1 [fluvoxamine] | higher rates of gastrointestinal adverse reactions compared to placebo | – |
| CNCC[C@H](Oc1cccc2ccccc12)c1cccs1 [duloxetine] | higher rates of gastrointestinal adverse reactions compared to placebo | – |
| CN(C)CCC[C@@]1(c2ccc(F)cc2)OCc2cc(C#N)ccc21 [escitalopram] | higher rates of gastrointestinal adverse reactions compared to placebo | gastrointestinal tolerability among antidepressants [1]: least tolerated antidepressants on the gastrointestinal tract; gastrointestinal tolerability among antidepressants ([1]; listed as Escitalopram): least tolerated antidepressants on the GI tract |
